Data as given in patent US20260028365A1 (BIOGEN MA INC., priority 2022, published 2026).

Assays:
[1] = target: JH2 domain of human Tyk2 (Homo sapiens (Human), UniProt P29597); assay: JH2 Biochemical Assay (TR-FRET probe displacement); format: binding; details: TR-FRET probe displacement, JH2 domain of human Tyk2
[2] = target: Tyk2 (Homo sapiens (Human), UniProt P29597); assay: pSTAT4 Cell Assay (MSD, NK92 cells); format: cell-based; details: MSD
Sequence of Tyk2 (P29597 whole entry): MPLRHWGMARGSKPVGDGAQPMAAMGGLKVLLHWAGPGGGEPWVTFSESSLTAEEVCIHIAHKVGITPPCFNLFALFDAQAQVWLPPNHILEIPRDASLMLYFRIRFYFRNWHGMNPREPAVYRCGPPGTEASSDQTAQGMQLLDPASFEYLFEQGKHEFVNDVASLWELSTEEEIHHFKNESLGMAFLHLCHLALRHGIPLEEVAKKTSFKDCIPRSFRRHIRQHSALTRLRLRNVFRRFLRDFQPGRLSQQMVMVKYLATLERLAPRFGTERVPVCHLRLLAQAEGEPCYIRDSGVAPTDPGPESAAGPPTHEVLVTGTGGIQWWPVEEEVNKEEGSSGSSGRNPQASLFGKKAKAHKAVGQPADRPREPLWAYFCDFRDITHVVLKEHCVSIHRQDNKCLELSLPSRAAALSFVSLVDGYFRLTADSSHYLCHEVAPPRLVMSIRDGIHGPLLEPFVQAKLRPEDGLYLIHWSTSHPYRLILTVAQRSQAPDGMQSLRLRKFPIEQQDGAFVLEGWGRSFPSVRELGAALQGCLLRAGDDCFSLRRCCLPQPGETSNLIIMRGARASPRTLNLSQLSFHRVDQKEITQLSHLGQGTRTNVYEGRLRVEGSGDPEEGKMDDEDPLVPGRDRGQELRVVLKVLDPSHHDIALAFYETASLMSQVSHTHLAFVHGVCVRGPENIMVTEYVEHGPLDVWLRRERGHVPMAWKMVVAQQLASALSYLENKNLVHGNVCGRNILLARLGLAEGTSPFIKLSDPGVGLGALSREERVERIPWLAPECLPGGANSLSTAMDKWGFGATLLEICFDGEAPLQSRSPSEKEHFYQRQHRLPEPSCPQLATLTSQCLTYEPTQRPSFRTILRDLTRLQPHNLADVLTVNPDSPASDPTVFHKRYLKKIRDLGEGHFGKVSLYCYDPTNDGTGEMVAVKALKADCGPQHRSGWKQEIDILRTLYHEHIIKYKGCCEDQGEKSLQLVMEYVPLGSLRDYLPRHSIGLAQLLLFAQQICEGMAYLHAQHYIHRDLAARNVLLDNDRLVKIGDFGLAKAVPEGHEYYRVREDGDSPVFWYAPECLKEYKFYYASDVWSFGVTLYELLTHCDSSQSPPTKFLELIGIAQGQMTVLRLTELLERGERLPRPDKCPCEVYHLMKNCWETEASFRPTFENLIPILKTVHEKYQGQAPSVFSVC

Sequence of JH2 domain of human Tyk2 (P29597 575-876): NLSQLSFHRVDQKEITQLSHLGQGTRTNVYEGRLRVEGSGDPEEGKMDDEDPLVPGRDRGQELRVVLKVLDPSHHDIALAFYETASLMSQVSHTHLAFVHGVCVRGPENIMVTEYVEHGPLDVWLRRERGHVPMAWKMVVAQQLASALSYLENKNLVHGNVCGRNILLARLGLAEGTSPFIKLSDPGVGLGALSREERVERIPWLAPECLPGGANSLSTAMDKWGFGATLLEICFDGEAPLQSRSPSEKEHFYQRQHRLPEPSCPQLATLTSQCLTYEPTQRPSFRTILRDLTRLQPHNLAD

| Structure (SMILES) | IC50 [1] [nM] | IC50 [2] [nM] |
| --- | --- | --- |
| CC(=O)Nc1cc(Nc2cc(C)nc(C(C)(F)F)n2)c(OCC23COCC(C2)C3)cn1 [Example 324, N-(5-((3-oxabicyclo[3.1.1]heptan-1-yl)methoxy)-4-((2-(1,1-difluoroethyl)-6-methylpyrimidin-4-yl)amino)pyridin-2-yl)acetamide] | ≤ 10 | 10 to 100 |
| CC(=O)Nc1cc(Nc2cc(C)nc(C(C)(F)F)n2)c(OCc2nc(C)co2)cn1 [Example 325, N-(4-((2-(1,1-difluoroethyl)-6-methylpyrimidin-4-yl)amino)-5-((4-methyloxazol-2-yl)methoxy)pyridin-2-yl)acetamide] | ≤ 10 | 10 to 100 |
| COCC1(COc2cnc(NC(C)=O)cc2Nc2cc(C)nc(C(C)(F)F)n2)CC1 [Example 326, N-(4-((2-(1,1-difluoroethyl)-6-methylpyrimidin-4-yl)amino)-5-((1-(methoxymethyl)cyclopropyl)methoxy)pyridin-2-yl)acetamide] | ≤ 10 | 10 to 100 |
| CCc1cnc(COc2cnc(NC(C)=O)cc2Nc2cc(C)nc(C(C)(F)F)n2)o1 [Example 327, N-(4-((2-(1,1-difluoroethyl)-6-methylpyrimidin-4-yl)amino)-5-((5-ethyloxazol-2-yl)methoxy)pyridin-2-yl)acetamide] | ≤ 10 | 10 to 100 |
| CC(=O)Nc1cc(Nc2cc(C)nc(C(C)(F)F)n2)c(OCCc2cccnc2F)cn1 [Example 328, N-(4-((2-(1,1-difluoroethyl)-6-methylpyrimidin-4-yl)amino)-5-(2-(2-fluoropyridin-3-yl)ethoxy)pyridin-2-yl)acetamide] | ≤ 10 | ≤ 10 |
| CC(=O)Nc1cc(Nc2cc(C)nc(C(C)(F)F)n2)c(OCc2c(C)ncnc2C)cn1 [Example 330, N-(4-((2-(1,1-difluoroethyl)-6-methylpyrimidin-4-yl)amino)-5-((4,6-dimethylpyrimidin-5-yl)methoxy)pyridin-2-yl)acetamide] | 10 to 100 | ≥ 1000 |
| CCc1noc(COc2cnc(NC(C)=O)cc2Nc2cc(C)nc(C(C)(F)F)n2)n1 [Example 331, N-(4-((2-(1,1-difluoroethyl)-6-methylpyrimidin-4-yl)amino)-5-((3-ethyl-1,2,4-oxadiazol-5-yl)methoxy)pyridin-2-yl)acetamide] | 10 to 100 | 100 to 1000 |
| CC(=O)Nc1cc(Nc2cc(C)nc(C(C)(F)F)n2)c(OC[C@H]2C[C@H](F)C2)cn1 [Example 332, N-(4-((2-(1,1-difluoroethyl)-6-methylpyrimidin-4-yl)amino)-5-(((1r,3r)-3-fluorocyclobutyl)methoxy)pyridin-2-yl)acetamide] | ≤ 10 | 10 to 100 |
| CC(=O)Nc1cc(Nc2cc(C)nc(C(C)(F)F)n2)c(OCc2ccc(C#N)o2)cn1 [Example 333, N-(5-((5-cyanofuran-2-yl)methoxy)-4-((2-(1,1-difluoroethyl)-6-methylpyrimidin-4-yl)amino)pyridin-2-yl)acetamide] | ≤ 10 | 10 to 100 |
| CC(=O)Nc1cc(Nc2cc(C)nc(C(C)(F)F)n2)c(OCc2scnc2C)cn1 [Example 334, N-(4-((2-(1,1-difluoroethyl)-6-methylpyrimidin-4-yl)amino)-5-((4-methylthiazol-5-yl)methoxy)pyridin-2-yl)acetamide] | 10 to 100 | 100 to 1000 |
| CC(=O)Nc1cc(Nc2cc(C)nc(C(C)(F)F)n2)c(OCc2conc2C)cn1 [Example 335, N-(4-((2-(1,1-difluoroethyl)-6-methylpyrimidin-4-yl)amino)-5-((3-methylisoxazol-4-yl)methoxy)pyridin-2-yl)acetamide] | ≤ 10 | 100 to 1000 |
| COC1(COc2cnc(NC(C)=O)cc2Nc2cc(C)nc(C(C)(F)F)n2)CCOCC1 [Example 337, N-(4-((2-(1,1-difluoroethyl)-6-methylpyrimidin-4-yl)amino)-5-((4-methoxytetrahydro-2H-pyran-4-yl)methoxy)pyridin-2-yl)acetamide] | ≤ 10 | 10 to 100 |
| CC(=O)Nc1cc(Nc2cc(C)nc(C(C)(F)F)n2)c(OCc2nc(C)c(C)o2)cn1 [Example 338, N-(4-((2-(1,1-difluoroethyl)-6-methylpyrimidin-4-yl)amino)-5-((4,5-dimethyloxazol-2-yl)methoxy)pyridin-2-yl)acetamide] | ≤ 10 | 10 to 100 |
| CC(=O)Nc1cc(Nc2cc(C)nc(C(C)(F)F)n2)c(OCc2ncc(C)o2)cn1 [Example 341, N-(4-((2-(1,1-difluoroethyl)-6-methylpyrimidin-4-yl)amino)-5-((5-methyloxazol-2-yl)methoxy)pyridin-2-yl)acetamide] | ≤ 10 | 10 to 100 |
| CC(=O)Nc1cc(Nc2cc(C)nc(C(C)(F)F)n2)c(OCc2ncc(C3CC3)o2)cn1 [Example 342, N-(5-((5-cyclopropyloxazol-2-yl)methoxy)-4-((2-(1,1-difluoroethyl)-6-methylpyrimidin-4-yl)amino)pyridin-2-yl)acetamide] | ≤ 10 | 100 to 1000 |
| CC(=O)Nc1cc(Nc2cc(C)nc(C(C)(F)F)n2)c(OCc2nc(C)ns2)cn1 [Example 343, N-(4-((2-(1,1-difluoroethyl)-6-methylpyrimidin-4-yl)amino)-5-((3-methyl-1,2,4-thiadiazol-5-yl)methoxy)pyridin-2-yl)acetamide] | ≤ 10 | 10 to 100 |
| CC(=O)Nc1cc(Nc2cc(C)nc(C(C)(F)F)n2)c(OCc2cnc(C3CC3)o2)cn1 [Example 344, N-(5-((2-cyclopropyloxazol-5-yl)methoxy)-4-((2-(1,1-difluoroethyl)-6-methylpyrimidin-4-yl)amino)pyridin-2-yl)acetamide] | ≤ 10 | 10 to 100 |
| COc1ccnc(COc2cnc(NC(C)=O)cc2Nc2cc(C)nc(C(C)(F)F)n2)n1 [Example 345, N-(4-((2-(1,1-difluoroethyl)-6-methylpyrimidin-4-yl)amino)-5-((4-methoxypyrimidin-2-yl)methoxy)pyridin-2-yl)acetamide] | 10 to 100 | 100 to 1000 |
| COc1cc(COc2cnc(NC(C)=O)cc2Nc2cc(C)nc(C(C)(F)F)n2)ncn1 [Example 346, N-(4-((2-(1,1-difluoroethyl)-6-methylpyrimidin-4-yl)amino)-5-((6-methoxypyrimidin-4-yl)methoxy)pyridin-2-yl)acetamide] | ≤ 10 | 10 to 100 |
| CC(=O)Nc1cc(Nc2cc(OC3CC3)nc(C(C)(F)F)n2)c(OCc2ccccn2)cn1 [Example 348, N-(4-((6-cyclopropoxy-2-(1,1-difluoroethyl)pyrimidin-4-yl)amino)-5-(pyridin-2-ylmethoxy)pyridin-2-yl)acetamide] | ≤ 10 | 10 to 100 |
| CC(=O)Nc1cc(Nc2cc(OC3CC3)nc(C(C)(F)F)n2)c(OCc2ccc(F)c(F)c2)cn1 [Example 349, N-(4-((6-cyclopropoxy-2-(1,1-difluoroethyl)pyrimidin-4-yl)amino)-5-((3,4-difluorobenzyl)oxy)pyridin-2-yl)acetamide] | ≤ 10 | ≤ 10 |
| CC(=O)Nc1cc(Nc2cc(OC3CC3)nc(C(C)(F)F)n2)c(O[C@H]2C[C@H](F)C2)cn1 [Example 352, N-(4-((6-cyclopropoxy-2-(1,1-difluoroethyl)pyrimidin-4-yl)amino)-5-((1r,3r)-3-fluorocyclobutoxy)pyridin-2-yl)acetamide] | ≤ 10 | 10 to 100 |
| CC(=O)Nc1cc(Nc2cc(C)nc(C(C)(F)F)n2)c(OCc2cnn(C3CCC3)c2)cn1 [Example 354, N-(5-((1-cyclobutyl-1H-pyrazol-4-yl)methoxy)-4-((2-(1,1-difluoroethyl)-6-methylpyrimidin-4-yl)amino)pyridin-2-yl)acetamide] | ≤ 10 | 100 to 1000 |
| CC(=O)Nc1cc(Nc2cc(C)nc(C(C)(F)F)n2)c(OCc2cccnc2)cn1 [Example 355, N-(4-((2-(1,1-difluoroethyl)-6-methylpyrimidin-4-yl)amino)-5-(pyridin-3-ylmethoxy)pyridin-2-yl)acetamide] | ≤ 10 | 10 to 100 |
| COc1cnc(Oc2cnc(NC(C)=O)cc2Nc2cc(C)nc(C(C)(F)F)n2)cn1 [Example 356, N-(4-((2-(1,1-difluoroethyl)-6-methylpyrimidin-4-yl)amino)-5-((5-methoxypyrazin-2-yl)oxy)pyridin-2-yl)acetamide] | ≥ 1000 | ≥ 1000 |
| COc1cncc(Oc2cnc(NC(C)=O)cc2Nc2cc(C)nc(C(C)(F)F)n2)n1 [Example 357, N-(4-((2-(1,1-difluoroethyl)-6-methylpyrimidin-4-yl)amino)-5-((6-methoxypyrazin-2-yl)oxy)pyridin-2-yl)acetamide] | 10 to 100 | ≥ 1000 |
| CC(=O)Nc1cc(Nc2cc(C)nc(C(C)(F)F)n2)c(Oc2ccnc(C(F)(F)F)n2)cn1 [Example 359, N-(4-((2-(1,1-difluoroethyl)-6-methylpyrimidin-4-yl)amino)-5-((2-(trifluoromethyl)pyrimidin-4-yl)oxy)pyridin-2-yl)acetamide] | ≥ 1000 | ≥ 1000 |
| [2H]C([2H])([2H])C([2H])([2H])Oc1cnc(NC(C)=O)cc1Nc1cc(-c2cnn(C(C)C)c2)nc(C(C)(F)F)n1 [Example 361, N-(4-((2-(1,1-difluoroethyl)-6-(1-isopropyl-1H-pyrazol-4-yl)pyrimidin-4-yl)amino)-5-(ethoxy-d5)pyridin-2-yl)acetamide] | ≤ 10 | ≤ 10 |
| COc1cnc(NC(C)=O)cc1Nc1cc(-c2cnn(C(C)C)c2)nc(C(C)(F)F)n1 [Example 363, N-(4-((2-(1,1-difluoroethyl)-6-(1-isopropyl-1H-pyrazol-4-yl)pyrimidin-4-yl)amino)-5-methoxypyridin-2-yl)acetamide] | ≤ 10 | ≤ 10 |
| CC(=O)Nc1cc(Nc2cc(C(C)C)nc(C(C)(F)F)n2)c(OCc2ccccn2)cn1 [Example 365, N-(4-((2-(1,1-difluoroethyl)-6-isopropylpyrimidin-4-yl)amino)-5-(pyridin-2-ylmethoxy)pyridin-2-yl)acetamide] | ≤ 10 | ≤ 10 |
